Measurements published in the NIST ThermoML archive (doi:10.1021/je700350b).

Assay: xn = mol fraction of the nth substance listed
Details: for viscosity: 101.33 kPa; for viscosity / binary diffusion coefficient: Liquid; for surface tension liquid-gas: Ring tensiometer; for binary diffusion coefficient: 101 kPa, Taylor dispersion method

CCN(CC)CCO [(diethylamino)ethanol] + O
Details	binary diffusion coefficient [m2/s]	surface tension liquid-gas [mN/m]	viscosity [mPa·s]
298.15 K, x1 = 0.1483	–	–	8.96
298.15 K, x1 = 0.1603	–	–	9.677
298.15 K, x1 = 0.1704	–	–	10.26
298.15 K, x1 = 0.1905	–	–	11.31
298.15 K, x1 = 0.2004	–	–	11.76
298.15 K, x1 = 0.2104	–	–	12.22
298.15 K, x1 = 0.22	–	–	12.66
298.15 K, x1 = 0.2301	–	–	13.04
298.15 K, x1 = 0.2401	–	–	13.42
298.15 K, x1 = 0.253	–	–	13.84
298.15 K, x1 = 0.2674	–	–	14.24
298.15 K, x1 = 0.2701	–	–	14.25
298.15 K, x1 = 0.2801	–	–	14.55
298.15 K, x1 = 0.29	–	–	14.76
298.15 K, x1 = 0.3022	–	–	14.98
298.15 K, x1 = 0.35	–	–	15.43
298.15 K, x1 = 0.3999	–	–	14.98
298.15 K, x1 = 0.4507	–	–	14.58
298.15 K, x1 = 0.5001	–	–	13.45
298.15 K, x1 = 0.5504	–	–	12.29
298.15 K, x1 = 0.6001	–	–	10.96
298.15 K, x1 = 0.6514	–	–	9.672
298.15 K, x1 = 0.7	–	–	8.576
298.15 K, x1 = 0.7508	–	–	7.471
298.15 K, x1 = 0.8001	–	–	6.597
298.15 K, x1 = 0.8508	–	–	5.743
298.15 K, x1 = 0.9001	–	–	5.063
298.15 K, x1 = 0.9501	–	–	4.494
298.15 K, x1 = 1	–	–	4.01
303.15 K, x1 = 0.00104	–	60.06	–
303.15 K, x1 = 0.00111	–	59.95	–
303.15 K, x1 = 0.0013	–	59.24	–
303.15 K, x1 = 0.00278	7.11e-10	–	–
303.15 K, x1 = 0.00336	–	51.86	–
303.15 K, x1 = 0.00503	–	50.47	–
303.15 K, x1 = 0.00524	6.5e-10	–	–
303.15 K, x1 = 0.00679	–	46.5	–
303.15 K, x1 = 0.00781	6.39e-10	–	–
303.15 K, x1 = 0.01005	–	–	1.062
303.15 K, x1 = 0.01032	5.82e-10	–	–
303.15 K, x1 = 0.01281	5.63e-10	–	–
303.15 K, x1 = 0.01536	5.39e-10	–	–
303.15 K, x1 = 0.01779	4.82e-10	–	–
303.15 K, x1 = 0.02016	–	–	1.333
303.15 K, x1 = 0.02026	4.54e-10	–	–
303.15 K, x1 = 0.02372	–	39.92	–
303.15 K, x1 = 0.02731	4.06e-10	–	–
303.15 K, x1 = 0.0382	3.14e-10	–	–
303.15 K, x1 = 0.03976	–	–	2.025
303.15 K, x1 = 0.03998	–	35.96	–
303.15 K, x1 = 0.05015	–	–	2.464
303.15 K, x1 = 0.05024	2.55e-10	–	–
303.15 K, x1 = 0.06011	–	34.47	–
303.15 K, x1 = 0.06028	–	–	2.899
303.15 K, x1 = 0.07004	–	–	3.354
303.15 K, x1 = 0.07276	–	33.87	–
303.15 K, x1 = 0.07362	1.77e-10	–	–
303.15 K, x1 = 0.08051	–	–	3.86
303.15 K, x1 = 0.08982	–	–	4.289
303.15 K, x1 = 0.09846	1.53e-10	–	–
303.15 K, x1 = 0.11	–	–	5.269
303.15 K, x1 = 0.12	–	–	5.728
303.15 K, x1 = 0.1247	1.37e-10	–	–
303.15 K, x1 = 0.1253	–	32.48	–
303.15 K, x1 = 0.1301	–	–	6.216
303.15 K, x1 = 0.1401	–	–	6.673
303.15 K, x1 = 0.1476	1.29e-10	–	–
303.15 K, x1 = 0.1511	–	–	7.151
303.15 K, x1 = 0.1603	–	–	7.537
303.15 K, x1 = 0.1704	–	–	7.965
303.15 K, x1 = 0.1749	–	30.78	–
303.15 K, x1 = 0.1801	1.32e-10	–	–
303.15 K, x1 = 0.1897	–	–	8.687
303.15 K, x1 = 0.1998	–	–	9.003
303.15 K, x1 = 0.2104	–	–	9.393
303.15 K, x1 = 0.22	–	–	9.709
303.15 K, x1 = 0.2301	–	–	9.979
303.15 K, x1 = 0.2401	–	–	10.26
303.15 K, x1 = 0.2498	–	–	10.48
303.15 K, x1 = 0.2503	–	30.81	–
303.15 K, x1 = 0.2674	–	–	10.84
303.15 K, x1 = 0.2701	–	–	10.86
303.15 K, x1 = 0.2801	–	–	11.05
303.15 K, x1 = 0.29	–	–	11.21
303.15 K, x1 = 0.3003	–	–	11.25
303.15 K, x1 = 0.35	–	–	11.5
303.15 K, x1 = 0.3515	–	29.72	–
303.15 K, x1 = 0.3997	–	–	11.47
303.15 K, x1 = 0.4018	–	29.34	–
303.15 K, x1 = 0.433	–	–	11.12
303.15 K, x1 = 0.4995	–	–	10.24
303.15 K, x1 = 0.5038	–	29.22	–
303.15 K, x1 = 0.5498	–	–	9.382
303.15 K, x1 = 0.5997	–	–	8.485
303.15 K, x1 = 0.608	–	28.83	–
303.15 K, x1 = 0.6499	–	–	7.581
303.15 K, x1 = 0.7001	–	–	6.746
303.15 K, x1 = 0.712	–	28.65	–
303.15 K, x1 = 0.7498	–	–	5.97
303.15 K, x1 = 0.7503	–	28.3	–
303.15 K, x1 = 0.8	–	–	5.299
303.15 K, x1 = 0.8499	–	–	4.701
303.15 K, x1 = 0.8542	–	27.91	–
303.15 K, x1 = 0.9	–	–	4.196
303.15 K, x1 = 0.95	–	–	3.742
303.15 K, x1 = 1	–	27.2	3.375
